Results from patent US9163007B2, “5-substituted indazoles as kinase inhibitors” (AbbVie Inc., priority 2007, dated 2015).
pEC50: −log10 of the molar value. Values joined by “and” are separate entries in the source; they are usually repeats but may differ in a detail not shown here. Identical values can stand only once.

Columns and labels:
rats [1] = assay: Sciatic nerve ligation model of neuropathic pain (Bennett); format: in vivo, rat; details: i.p. or p.o., doses ranging from 1-150 mg/kg
Text: Sciatic Nerve Ligation Model of Neuropathic Pain.
As previously described in detail by Bennett and Xie (Bennett G. J.; Xie Y-K. A peripheral mononeuropathy in rat that produces disorders of pain sensation like those seen in man. Pain 1988, 33, 87-107), in anesthetized rats, a 1.5 cm incision was made 0.5 cm below the pelvis and the biceps femoris and the gluteous superficialis (right side) were separated. The sciatic nerve was exposed, isolated, and four loose ligatures (5-0 chromic catgut) with 1 mm spacing were placed around it. The rats were allowed to recover and then placed in a cage with soft bedding for 14 days before behavioral testing for mechanical allodynia as described above. In addition, animals were also tested for cold allodynia by dipping their hind paw in a cold-water bath (4.5° C.) and determining the paw withdrawal latency.

rats [2] = assay: Spinal nerve (L5/L6) ligation model of neuropathic pain (Chung); format: in vivo, rat; details: i.p. or p.o., doses ranging from 1-150 mg/kg
Text: Spinal Nerve (L5/L6) Ligation Model of Neuropathic Pain.
As previously described in detail by Kim and Chung (Kim S. H.; Chung J. M. An experimental model for peripheral neuropathy produced by segmental spinal nerve ligation in the rat. Pain 1992, 50, 355-363), a 1.5 cm incision was made dorsal to the lumbosacral plexus. In anesthetized rats, the paraspinal muscles (left side) were separated from the spinous processes, the L5 and L6 spinal nerves isolated, and tightly ligated with 3-0 silk threads. Following hemostasis, the wound was sutured and coated with antibiotic ointment. The rats were allowed to recover and then placed in a cage with soft bedding for 14 days before behavioral testing for mechanical allodynia.

IL-13 = assay: Murine asthma model: IL-13 measurement in bronchoalveolar lavage fluid; format: in vivo, mouse
Experimental: (§1) Animals were sensitized to OVA on day 0 and 7 with an i.p. injection of 8 μg OVA in 2 mg alum. On days 14 and 16, animals received intra-nasal challenge of 0.3 μg OVA in 50 μl sterile PBS. Animals were dosed i.p. with a representative compound of formula (I), Example 179, (dissolved with 0.5% HMPC, 0.02% Tween 80 in water) twice per day at doses of 3, 10, and 30 mg/kg/dose beginning the afternoon of day 13. The final dose of compound was administered 30 minutes prior to measurement of airway hyperresponsiveness (AHR). Dexamethasone was administered orally once a day on days 13-17 at a dose of 3 mg/kg. All endpoints were analyzed on day 17, 24 hours after the second OVA challenge. AHR was assessed using unconscious restrained whole body plethysmography. Briefly, a surgical plane of anesthesia was induced with an i.p. injection of ketamine and xylazine. A tracheal canula was surgically inserted between the third and fourth tracheal rings. Spontaneous breathing was prevented by an intravenous (i.v.) jugular vein injection of pancuronium bromide. Animals were placed in a whole body plethysmograph (Buxco) and mechanically ventilated with 0.2 mL room air at 150 breaths per minute with a volume-controlled ventilator (Harvard Apparatus). Pressure in the lung and flow within the plethysmograph were measured using transducers, and lung resistance was calculated as pressure/flow using Biosystem Xa software. Baseline resistance as well as resistance following challenge with methacholine (3, 10 or 30 mg/mL) that was delivered with an inline ultrasonic-nebulizer were measured. Upon completion of pulmonary function testing, the lungs were lavaged 4 times with 0.5 mL sterile PBS. Lavage fluid was analyzed for IL-13, AMCase, Muc5ac and cellular infiltrates. The efficacy of the test compound was tested at doses of 3, 10 and 30 mg/kg b.i.d. (6, 20, 60 mg/kg/day). […]
IL-13 concentrations in the bronchoalveolar lavage fluid (BAL) were measured by ELISA (R & D Systems) according to manufacturer's instructions.

[3] = tested on: Acidic mammalian chitinase (AMCase); assay: Murine asthma model: AMCase measurement in BAL fluid; format: in vivo, mouse; details: 30 mg/kg group, p<0.01
Experimental: as §1, with “Spontaneous breathing was prevented by an intravenous (i.v.) jugular vein injection of pancuronium bromide. Animals were placed in a whole body plethysmograph (Buxco) and mechanically ventilated with 0.2 mL room air at 150 breaths per minute with a volume-controlled ventilator (Harvard Apparatus).” left out, “Upon completion of pulmonary function testing, the lungs were lavaged 4 times with 0.5 mL sterile PBS.” left out, “infiltrates.” for “infiltrates. The efficacy of the test compound was tested at doses of 3, 10 and 30 mg/kg b.i.d. (6, 20, 60 mg/kg/day).”

MUC5AC = assay: Murine asthma model: MUC5AC measurement in BAL; format: in vivo, mouse; design: dose or concentration left out as unconfirmed
Experimental: Animals were sensitized to OVA on day 0 and 7 with an i.p. injection of 8 μg OVA in 2 mg alum. On days 14 and 16, animals received intra-nasal challenge of 0.3 μg OVA in 50 μl sterile PBS. […] The final dose of compound was administered 30 minutes prior to measurement of airway hyperresponsiveness (AHR). Dexamethasone was administered orally once a day on days 13-17 at a dose of 3 mg/kg. All endpoints were analyzed on day 17, 24 hours after the second OVA challenge. AHR was assessed using unconscious restrained whole body plethysmography. Briefly, a surgical plane of anesthesia was induced with an i.p. injection of ketamine and xylazine. A tracheal canula was surgically inserted between the third and fourth tracheal rings. […] Pressure in the lung and flow within the plethysmograph were measured using transducers, and lung resistance was calculated as pressure/flow using Biosystem Xa software. Baseline resistance as well as resistance following challenge with methacholine (3, 10 or 30 mg/mL) that was delivered with an inline ultrasonic-nebulizer were measured. […] Lavage fluid was analyzed for IL-13, AMCase, Muc5ac and cellular infiltrates. […]
Concentrations of the mucin gene MUC5AC were quantitated by ELISA format. […] The reaction was stopped using 1M H2SO4 and then read in a spectrophotometer at OD 450 nm.

Balb/c mice = assay: Murine model of acute asthma: airway hyperresponsiveness (lung resistance); format: in vivo, mouse; details: OVA-challenged mice
Text: Murine Asthma Model of Acute Asthma
Female Balb/c mice were purchased from Taconic and housed at Abbott Bioresearch Center. Animals were utilized at 8-12 weeks of age. All protocols were approved by the Institutional Animal Care and Use Committee (IACUC). Dexamethasone (Dex), and ovalbumin (OVA) were purchased from Sigma. Endotoxin was removed from ovalbumin using DetoxiGel (Pierce) according to manufacturer's protocol and the final material contained less than 0.1 EU/mg protein. Alum Imject was purchased from Pierce.
Animals were sensitized to OVA on day 0 and 7 with an i.p. injection of 8 μg OVA in 2 mg alum. On days 14 and 16, animals received intra-nasal challenge of 0.3 μg OVA in 50 μl sterile PBS. […] All endpoints were analyzed on day 17, 24 hours after the second OVA challenge. AHR was assessed using unconscious restrained whole body plethysmography. […] Pressure in the lung and flow within the plethysmograph were measured using transducers, and lung resistance was calculated as pressure/flow using Biosystem Xa software. Baseline resistance as well as resistance following challenge with methacholine (3, 10 or 30 mg/mL) that was delivered with an inline ultrasonic-nebulizer were measured. […] Lavage fluid was analyzed for IL-13, AMCase, Muc5ac and cellular infiltrates. […]

[4] = tested on: phospho-MCM2 Ser53 in HCT-116 cells; assay: Phospho-MCM2 ELISA; format: cell-based; details: Homo sapiens, treated 6 hours
Experimental: HCT-116 cells (20,000/well; 96-well format) were treated for 6 hours with increasing concentrations of compounds (0.01-10 μM in half-log increments). After removing the medium/inhibitor, the cells were frozen for 5 minutes and treated on ice with 20 μL of lysis buffer (Invitrogen #FNN0011) for 30 minutes. 80 μL of cold 2% BSA (in PBS) were then added to each well before transferring 80 μL to MCM2 antibody-coated plates (Bethyl #A300-122A, lot A300-122A-1). The plates were incubated overnight at 4° C., washed, and then incubated with the sandwich antibody (1:100 rabbit anti-human phospho-MCM2 Ser53; Bethyl #A300-756A, lot A300-756A-2) for 2 hours at room temperature. After another series of washes the samples are incubated for 1 hour with detection antibody (XSA-grade goat anti-rabbit-HRP, KPL #074-15-061, lot 50884, diluted to 2 μg/mL in 2% BSA). Plates were washed, developed using luminescence substrate (SuperSignal Pico for ELISA, Pierce #37069, Lot. HB101408), and read on a Molecular Devices M5 luminometer.

Cdc7/Dbf4 = Cdc7/Dbf4 (Homo sapiens (Human), UniProt O00311); assay: Cdc7 Inhibition Assay; format: biochemical; details: 11 data point; read-out: Ki (μM) 11 data point;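 note: reaction mixtures incubated 30 min on streptavidin-coated plates, then quantified by scintillation counting, with inhibition curves fitted by non-linear regression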
Cdc7/Dbf4, sequence (O00311 whole entry): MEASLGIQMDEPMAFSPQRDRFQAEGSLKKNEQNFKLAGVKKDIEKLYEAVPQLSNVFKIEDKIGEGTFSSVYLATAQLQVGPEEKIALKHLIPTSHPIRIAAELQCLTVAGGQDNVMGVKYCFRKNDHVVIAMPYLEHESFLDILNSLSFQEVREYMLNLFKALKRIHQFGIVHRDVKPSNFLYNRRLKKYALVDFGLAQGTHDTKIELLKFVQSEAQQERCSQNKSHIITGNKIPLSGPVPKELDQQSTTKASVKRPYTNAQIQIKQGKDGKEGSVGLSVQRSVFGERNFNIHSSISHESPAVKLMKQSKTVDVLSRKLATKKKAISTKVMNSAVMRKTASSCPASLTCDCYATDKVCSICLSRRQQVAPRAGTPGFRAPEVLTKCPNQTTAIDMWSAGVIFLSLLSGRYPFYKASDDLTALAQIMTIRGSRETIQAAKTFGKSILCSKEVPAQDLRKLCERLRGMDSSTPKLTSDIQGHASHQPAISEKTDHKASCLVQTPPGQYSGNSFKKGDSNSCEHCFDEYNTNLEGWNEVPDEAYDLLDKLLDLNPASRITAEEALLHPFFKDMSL
Cdc7/Dbf4, sequence (Q9UBU7 whole entry partner): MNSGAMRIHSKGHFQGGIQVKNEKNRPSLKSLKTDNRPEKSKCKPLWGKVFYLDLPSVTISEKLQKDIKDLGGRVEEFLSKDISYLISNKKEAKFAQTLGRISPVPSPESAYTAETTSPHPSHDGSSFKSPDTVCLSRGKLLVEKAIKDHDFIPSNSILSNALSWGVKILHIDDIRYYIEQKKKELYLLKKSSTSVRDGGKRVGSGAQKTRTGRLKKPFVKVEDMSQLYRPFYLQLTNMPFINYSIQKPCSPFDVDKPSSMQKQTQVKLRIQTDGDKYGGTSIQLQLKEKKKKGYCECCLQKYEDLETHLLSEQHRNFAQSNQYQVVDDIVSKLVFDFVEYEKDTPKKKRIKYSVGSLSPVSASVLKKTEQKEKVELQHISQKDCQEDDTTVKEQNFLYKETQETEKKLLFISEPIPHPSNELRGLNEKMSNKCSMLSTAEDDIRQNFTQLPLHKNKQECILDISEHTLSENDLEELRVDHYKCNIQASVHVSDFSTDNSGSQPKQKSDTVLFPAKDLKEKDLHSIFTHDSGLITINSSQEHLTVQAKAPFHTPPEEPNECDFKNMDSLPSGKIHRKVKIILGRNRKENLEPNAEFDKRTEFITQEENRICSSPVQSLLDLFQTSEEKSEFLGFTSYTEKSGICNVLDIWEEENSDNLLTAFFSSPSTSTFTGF
Experimental: The reactions were incubated for 30 minutes on streptavidin-coated plates, washed, and quantified using a TopCount scintillation plate reader (Packard). IC50 values are determined via non-linear regression fitting of the data.

HCT-116 cells = assay: AlamarBlue Cell Viability Assays; format: cell-based; details: Homo sapiens, treated 72 hours
Summary of the method: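 Cells were exposed for 72 h to compound at 0.01-30 μM in half-log steps, then given fresh medium with 10% AlamarBlue for about 4 h. Viability was read as fluorescence at 544/595 nm.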

Row | Compound | pEC50 [4] | Ki (Cdc7/Dbf4) | pEC50 (HCT-116 cells) | also measured
1 | O=C(N[C@H](CO)c1ccccc1)c1cc(-c2ccc3[nH]ncc3c2)on1 [Example 160, N-[(1S)-2-hydroxy-1-phenylethyl]-5-(1H-indazol-5-yl)isoxazole-3-carboxamide] |  |  |  | inhibition of tactile allodynia (rats [1]): greater than 30%; inhibition of tactile allodynia (rats [2]): greater than 30%
2 | O=C(N[C@H](CCO)c1ccccc1)c1cc(-c2ccc3[nH]ncc3c2)on1 [Example 179, N-[(1R)-3-hydroxy-1-phenylpropyl]-5-(1H-indazol-5-yl)isoxazole-3-carboxamide] |  |  |  | inhibition of IL-13 induction in BAL fluid (IL-13; 3 mg/kg dose group): no significant inhibition; inhibition of IL-13 induction in BAL fluid (IL-13; 10 mg/kg dose group): no significant inhibition; inhibition of IL-13 induction in BAL fluid (IL-13; 30 mg/kg dose, p<0.05): 60%; inhibition of tactile allodynia (rats [1]): greater than 30%; inhibition of AMCase activity induction in BAL fluid [3]: 45%; reduction of MUC5AC levels (MUC5AC): 35%; methacholine-induced airways resistance (Balb/c mice; i.p. twice per day, tested 3, 10, 30 mg/kg, printed 'doses ranging between 1 and 100 mg/kg', OVA 6.90, PBS 4.65): 4.55 cm H2O/mL/sec and 4.77 cm H2O/mL/sec; inhibition of tactile allodynia (rats [2]): greater than 30%
3 | CCNC(=O)Nc1n[nH]c2ccc(-c3cn(Cc4ccccc4)nn3)cc12 [Example 322, N-[5-(1-benzyl-1H-1,2,3-triazol-4-yl)-1H-indazol-3-yl]-N′-ethylurea] | < 5.00 | 0.034 µM | 5.82 | 
4 | c1ccc(Cn2cc(-c3ccc4[nH]nc(-c5cccs5)c4c3)nn2)cc1 [Example 401, 5-(1-benzyl-1H-1,2,3-triazol-4-yl)-3-thien-2-yl-1H-indazole] | < 5.00 | 0.00492 µM | 5.17 | 
5 | Nc1n[nH]c2ccc(-c3nnn(Cc4ccccc4)c3CC3CCCCC3)cc12 [Example 403, 5-[1-benzyl-5-(cyclohexylmethyl)-1H-1,2,3-triazol-4-yl]-1H-indazol-3-amine] | < 5.00 | 0.0082 µM | 8.10 | 
6 | Nc1n[nH]c2ccc(-c3nnn(Cc4ccccc4)c3Cc3ccccc3)cc12 [Example 405, 5-(1,5-dibenzyl-1H-1,2,3-triazol-4-yl)-1H-indazol-3-amine] | 5.51 | 0.0011 µM | 5.18 | 
7 | Nc1n[nH]c2ccc(-c3nnn(Cc4ccccc4)c3-c3cccs3)cc12 [Example 406, 5-(1-benzyl-5-thien-2-yl-1H-1,2,3-triazol-4-yl)-1H-indazol-3-amine] | 6.17 | 0.0005 µM | 5.83 | 
8 | Nc1n[nH]c2ccc(-c3nnn(Cc4ccccc4)c3CC3CCCC3)cc12 [Example 409, 5-[1-benzyl-5-(cyclopentylmethyl)-1H-1,2,3-triazol-4-yl]-1H-indazol-3-amine] | < 5.00 | 0.02 µM | 4.87 | 
9 | C[C@@H]1C[C@H]2[C@@H]3CCC4=CC(=O)C=C[C@]4(C)[C@@]3(F)[C@@H](O)C[C@]2(C)[C@@]1(O)C(=O)CO [dexamethasone, Dexamethasone, reference compound] |  |  |  | methacholine-induced airways resistance (Balb/c mice; 3 mg/kg orally once a day): 4.76 cm H2O/mL/sec
